Reference: ChEMBL document CHEMBL1128634, “Piperidine-ether based hNK1 antagonists 2: Investigation of the effect of N-substitution” (Bioorg Med Chem Lett, 1995)

Legend:
[1] = Inhibition of [3H]diltiazem binding to L-type calcium channel of rabbit skeletal muscle at 30 uM; type: functional; details: Oryctolagus cuniculus, Muscle tissue
[2] = pKa value of the compound; type: physicochemical
Substance-K receptor = target: T1, Substance-K receptor (Homo sapiens, UniProt P21452); assay: Tested for inhibition of human Neurokinin Tachykinin receptor 2.
T1 sequence (P21452 whole entry): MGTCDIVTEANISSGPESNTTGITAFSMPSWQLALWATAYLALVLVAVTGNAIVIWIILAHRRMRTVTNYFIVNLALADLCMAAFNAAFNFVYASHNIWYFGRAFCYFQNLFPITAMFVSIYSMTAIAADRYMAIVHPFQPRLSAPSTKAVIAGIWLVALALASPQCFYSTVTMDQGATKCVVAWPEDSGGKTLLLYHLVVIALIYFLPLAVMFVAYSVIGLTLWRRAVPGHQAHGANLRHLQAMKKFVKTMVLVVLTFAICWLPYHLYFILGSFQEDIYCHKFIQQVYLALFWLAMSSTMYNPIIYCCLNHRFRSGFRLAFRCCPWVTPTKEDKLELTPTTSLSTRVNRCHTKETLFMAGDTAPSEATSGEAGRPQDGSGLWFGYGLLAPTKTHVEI

Neuromedin-K receptor = target: T2, Neuromedin-K receptor (Homo sapiens, UniProt P29371); assay: Tested for inhibition of human Tachykinin receptor 3
T2 sequence (P29371 whole entry): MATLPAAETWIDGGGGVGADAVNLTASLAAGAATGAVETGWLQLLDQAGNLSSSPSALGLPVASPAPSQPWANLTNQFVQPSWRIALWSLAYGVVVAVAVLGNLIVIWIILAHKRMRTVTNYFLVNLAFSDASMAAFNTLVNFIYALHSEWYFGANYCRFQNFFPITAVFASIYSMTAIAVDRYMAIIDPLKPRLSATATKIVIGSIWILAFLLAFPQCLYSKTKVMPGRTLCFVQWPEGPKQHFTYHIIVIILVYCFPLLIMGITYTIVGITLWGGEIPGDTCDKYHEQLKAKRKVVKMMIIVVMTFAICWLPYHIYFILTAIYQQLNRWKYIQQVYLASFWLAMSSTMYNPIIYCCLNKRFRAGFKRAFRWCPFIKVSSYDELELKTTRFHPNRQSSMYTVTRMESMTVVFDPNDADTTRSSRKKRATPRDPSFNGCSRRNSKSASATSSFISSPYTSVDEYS

[3] = Inhibition of [3H]diltiazem binding to L-type calcium channel of rabbit skeletal muscle; type: functional, tissue-based, Oryctolagus cuniculus, Muscle tissue
Substance-P receptor = Substance-P receptor (Homo sapiens, UniProt P25103); assay: Displacement of [125I]- Substance P from human Neurokinin 1 (hNK1) receptor expressed in CHO cells; type: cell-based
Substance-P receptor, sequence (P25103 whole entry): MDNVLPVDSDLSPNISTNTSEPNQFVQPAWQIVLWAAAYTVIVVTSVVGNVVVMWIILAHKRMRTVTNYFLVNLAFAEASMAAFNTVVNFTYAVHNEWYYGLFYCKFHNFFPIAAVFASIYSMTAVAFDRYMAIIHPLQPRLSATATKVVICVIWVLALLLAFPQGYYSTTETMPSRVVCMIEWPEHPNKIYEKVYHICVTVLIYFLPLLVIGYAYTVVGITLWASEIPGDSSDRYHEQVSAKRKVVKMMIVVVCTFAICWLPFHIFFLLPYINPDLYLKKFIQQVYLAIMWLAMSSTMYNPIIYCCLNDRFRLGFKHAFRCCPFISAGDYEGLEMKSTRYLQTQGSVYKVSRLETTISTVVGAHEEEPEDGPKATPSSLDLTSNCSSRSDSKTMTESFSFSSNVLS

[4] = Inhibition of [3H]diltiazem binding to L-type calcium channel of rabbit skeletal muscle at 5 uM; type: functional; details: Oryctolagus cuniculus, Muscle tissue

In the case of `NC(=O)CN1CCC[C@H](OCc2cc(C(F)(F)F)cc(C(F)(F)F)c2)[C@@H]1c1ccccc1`, the inhibition at 30 µM [1] is reported as 16% and the pKa [2] is reported as 5.4.

Work on `FC(F)(F)c1cc(CO[C@H]2CCCN[C@H]2c2ccccc2)cc(C(F)(F)F)c1` yielded an IC50 (Substance-K receptor) of over 1000 nM, an IC50 (Neuromedin-K receptor) of over 1000 nM and an IC50 [3] of 760 nM. The IC50 (Substance-P receptor) was 0.87 nM.

Work on `O=C(O)CN1CCC[C@H](OCc2cc(C(F)(F)F)cc(C(F)(F)F)c2)[C@@H]1c1ccccc1` yielded an inhibition at 5 µM [4] of 7%.

`COC(=O)C(=O)N1CCC[C@H](OCc2cc(C(F)(F)F)cc(C(F)(F)F)c2)[C@@H]1c1ccccc1` showed an inhibition at 5 µM [4] of 0%.

`CN1CCC[C@H](OCc2cc(C(F)(F)F)cc(C(F)(F)F)c2)[C@@H]1c1ccccc1` showed an IC50 [3] of 720 nM.

Work on `CNC(=O)CN1CCC[C@H](OCc2cc(C(F)(F)F)cc(C(F)(F)F)c2)[C@@H]1c1ccccc1` yielded an inhibition at 5 µM [4] of 0%.

Compound `NC(=O)C(=O)N1CCC[C@H](OCc2cc(C(F)(F)F)cc(C(F)(F)F)c2)[C@@H]1c1ccccc1` has an inhibition at 5 µM [4] of 0% and an IC50 (Substance-P receptor) of 25 nM.

Compound `CC(=O)N1CCC[C@H](OCc2cc(C(F)(F)F)cc(C(F)(F)F)c2)[C@@H]1c1ccccc1` has an inhibition at 5 µM [4] of 0%.

Work on `NC(=O)CCCN1CCC[C@H](OCc2cc(C(F)(F)F)cc(C(F)(F)F)c2)[C@@H]1c1ccccc1` yielded an inhibition at 5 µM [4] of 98%.

In the case of `CN(C)C(=O)CN1CCC[C@H](OCc2cc(C(F)(F)F)cc(C(F)(F)F)c2)[C@@H]1c1ccccc1`, the inhibition at 5 µM [4] is reported as 0%.

With `FC(F)(F)c1cc(CO[C@H]2CCCN(Cc3ccccc3)[C@H]2c2ccccc2)cc(C(F)(F)F)c1` the IC50 [3] was 4.1 nM.

`COC(=O)CN1CCC[C@H](OCc2cc(C(F)(F)F)cc(C(F)(F)F)c2)[C@@H]1c1ccccc1` showed an IC50 [3] of 26 nM.

For `NC(=O)CCN1CCC[C@H](OCc2cc(C(F)(F)F)cc(C(F)(F)F)c2)[C@@H]1c1ccccc1`, the inhibition at 5 µM [4] was 98% and the pKa [2] was 6.5.

With `COc1ccccc1CN[C@H]1CCCN(CC(N)=O)[C@H]1c1ccccc1` (racemic) the IC50 (Substance-P receptor) was 227 nM.
